Assay results: PMC6858497 (The Journal of physiology, 2019)
Several values for one entry are separate records, joined by “and”; a condition that tells them apart may be missing. Equal values may be shown once.

Experiments:
Type in all cases: cell-based
GluN1–1b/2B = GluN1–1b/2B (Rattus norvegicus, UniProt P35439+Q00960); experiment: Two-electrode voltage-clamp recordings, Xenopus oocytes; details: at 10 μM; isoform 1b
GluN1–1b/2D = GluN1–1b/2D (Rattus norvegicus, UniProt P35439+Q62645); experiment: as above; details: at 10 μM; isoform 1b
Chain of GluN1–1b/2D (Q62645 28-1323, other chains not shown): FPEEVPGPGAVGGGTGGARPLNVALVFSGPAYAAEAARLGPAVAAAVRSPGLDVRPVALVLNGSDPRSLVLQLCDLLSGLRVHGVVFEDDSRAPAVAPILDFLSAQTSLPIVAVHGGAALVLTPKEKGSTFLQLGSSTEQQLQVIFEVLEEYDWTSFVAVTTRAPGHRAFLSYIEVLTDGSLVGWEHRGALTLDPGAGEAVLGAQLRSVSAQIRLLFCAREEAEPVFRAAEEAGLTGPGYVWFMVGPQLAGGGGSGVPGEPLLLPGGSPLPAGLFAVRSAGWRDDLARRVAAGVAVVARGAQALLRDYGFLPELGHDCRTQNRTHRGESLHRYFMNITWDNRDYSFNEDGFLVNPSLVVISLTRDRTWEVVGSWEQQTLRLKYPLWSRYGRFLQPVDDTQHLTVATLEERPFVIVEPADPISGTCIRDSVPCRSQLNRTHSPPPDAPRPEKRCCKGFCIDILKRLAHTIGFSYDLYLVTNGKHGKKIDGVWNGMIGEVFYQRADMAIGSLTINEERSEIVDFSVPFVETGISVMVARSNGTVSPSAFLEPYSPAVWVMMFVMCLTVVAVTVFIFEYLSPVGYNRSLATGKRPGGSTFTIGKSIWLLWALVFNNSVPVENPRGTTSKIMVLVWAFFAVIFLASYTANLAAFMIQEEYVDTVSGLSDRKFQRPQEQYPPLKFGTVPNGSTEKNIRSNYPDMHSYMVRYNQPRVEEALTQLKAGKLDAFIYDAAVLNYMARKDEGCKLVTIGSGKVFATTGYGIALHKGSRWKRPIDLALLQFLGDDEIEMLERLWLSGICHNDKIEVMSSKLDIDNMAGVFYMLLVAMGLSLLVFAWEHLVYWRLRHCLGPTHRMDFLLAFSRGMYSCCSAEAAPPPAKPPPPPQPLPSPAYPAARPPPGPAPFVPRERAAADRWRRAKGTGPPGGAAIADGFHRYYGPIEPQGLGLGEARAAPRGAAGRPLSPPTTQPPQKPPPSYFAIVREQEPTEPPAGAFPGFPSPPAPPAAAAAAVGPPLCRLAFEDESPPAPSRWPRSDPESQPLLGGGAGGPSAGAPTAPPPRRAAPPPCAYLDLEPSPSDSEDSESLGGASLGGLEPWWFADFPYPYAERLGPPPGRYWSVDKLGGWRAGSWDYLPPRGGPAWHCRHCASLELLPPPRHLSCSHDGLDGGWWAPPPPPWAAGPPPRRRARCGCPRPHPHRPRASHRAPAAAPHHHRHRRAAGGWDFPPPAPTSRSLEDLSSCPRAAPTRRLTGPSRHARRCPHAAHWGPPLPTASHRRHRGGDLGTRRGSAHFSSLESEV

GluN1–1a/2D = GluN1–1a/2D (Rattus norvegicus, UniProt P35439+Q62645); experiment: as above
Chain of GluN1–1a/2D (Q62645 28-1323, other chains not shown): as above

GluN1–1b/2BC1/2DC2 = GluN1–1b/2BC1/2DC2 (Rattus norvegicus, UniProt P35439+Q00959+Q00960+Q62645, A876H/F846L/G856D/H848F/K857R/M851T/M860L/Q845K/R869K/V861L/V866F); experiment: as above; details: at 10 μM; isoform 1b
GluN1–1a/2BC1/2DC2 = GluN1–1a/2BC1/2DC2 (Rattus norvegicus, UniProt P35439+Q00959+Q00960+Q62645, A876H/F846L/G856D/H848F/K857R/M851T/M860L/Q845K/R869K/V861L/V866F); experiment: as above; details: isoform 1a
GluN1–1a AC1/BC2 = GluN1–1a AC1/BC2 (Rattus norvegicus, UniProt P35439+Q00959+Q00960, A876H/F846L/G856D/H848F/K857R/M851T/M860L/Q845K/V861L); experiment: Outside-out patch-clamp recordings, fast application
GluN1–1b BC1/BC2 = GluN1–1b BC1/BC2 (Rattus norvegicus, UniProt P35439+Q00959+Q00960, A876H/F846L/G856D/H848F/K857R/M851T/M860L/Q845K/V861L); experiment: as above
[1] = molecular target: GluN1–1b A/A (GluN1/2A/2A) (Rattus norvegicus, UniProt P35439+Q00959); experiment: as above
GluN1–1b AC1/AC2 = GluN1–1b AC1/AC2 (Rattus norvegicus, UniProt P35439+Q00959); experiment: as above
GluN1–1a B/B = GluN1–1a B/B (Rattus norvegicus, UniProt P35439+Q00960); experiment: as above
Chain of GluN1–1a B/B (Q00960 27-1482, other chains not shown): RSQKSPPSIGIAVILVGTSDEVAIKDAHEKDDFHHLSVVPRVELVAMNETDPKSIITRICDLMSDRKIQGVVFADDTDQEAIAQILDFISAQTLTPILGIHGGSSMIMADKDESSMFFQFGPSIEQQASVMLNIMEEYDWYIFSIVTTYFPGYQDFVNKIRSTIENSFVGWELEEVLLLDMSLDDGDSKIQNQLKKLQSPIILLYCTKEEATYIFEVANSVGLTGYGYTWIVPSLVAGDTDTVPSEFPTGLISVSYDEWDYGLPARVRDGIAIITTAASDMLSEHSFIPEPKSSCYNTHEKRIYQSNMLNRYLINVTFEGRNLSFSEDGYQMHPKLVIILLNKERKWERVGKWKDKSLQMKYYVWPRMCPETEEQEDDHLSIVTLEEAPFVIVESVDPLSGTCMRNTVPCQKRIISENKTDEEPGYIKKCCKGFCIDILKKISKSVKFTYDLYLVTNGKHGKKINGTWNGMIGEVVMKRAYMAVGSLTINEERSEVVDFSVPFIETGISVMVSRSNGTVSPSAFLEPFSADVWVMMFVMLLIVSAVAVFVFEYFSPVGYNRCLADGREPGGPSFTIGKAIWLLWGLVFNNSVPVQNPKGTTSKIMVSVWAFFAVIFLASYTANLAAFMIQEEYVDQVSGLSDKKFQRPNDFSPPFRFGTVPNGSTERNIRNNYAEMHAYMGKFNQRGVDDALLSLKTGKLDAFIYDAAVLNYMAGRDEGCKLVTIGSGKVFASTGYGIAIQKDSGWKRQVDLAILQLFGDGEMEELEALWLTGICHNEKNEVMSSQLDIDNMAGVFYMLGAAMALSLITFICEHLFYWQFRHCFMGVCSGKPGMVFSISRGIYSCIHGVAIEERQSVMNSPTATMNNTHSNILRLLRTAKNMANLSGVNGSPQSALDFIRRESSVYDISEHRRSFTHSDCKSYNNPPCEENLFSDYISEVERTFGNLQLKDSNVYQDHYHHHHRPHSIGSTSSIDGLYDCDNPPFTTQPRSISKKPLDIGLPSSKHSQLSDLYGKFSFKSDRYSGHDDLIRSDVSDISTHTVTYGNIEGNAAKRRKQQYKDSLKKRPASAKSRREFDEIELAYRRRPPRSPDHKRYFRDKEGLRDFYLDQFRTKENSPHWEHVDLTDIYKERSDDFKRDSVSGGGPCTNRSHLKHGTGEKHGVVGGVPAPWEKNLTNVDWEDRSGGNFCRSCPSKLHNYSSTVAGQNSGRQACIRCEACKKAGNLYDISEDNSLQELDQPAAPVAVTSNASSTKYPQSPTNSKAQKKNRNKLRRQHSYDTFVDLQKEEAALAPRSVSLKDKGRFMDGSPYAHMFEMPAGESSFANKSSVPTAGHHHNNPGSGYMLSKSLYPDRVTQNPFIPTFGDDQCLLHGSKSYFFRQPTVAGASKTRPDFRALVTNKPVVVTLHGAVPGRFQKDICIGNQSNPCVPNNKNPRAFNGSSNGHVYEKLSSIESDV

GluN1–1a BC1/BC2 = GluN1–1a BC1/BC2 (Rattus norvegicus, UniProt P35439+Q00959+Q00960, A876H/F846L/G856D/H848F/K857R/M851T/M860L/Q845K/V861L); experiment: as above
[2] = molecular target: GluN1–1a A/A (GluN1/2A/2A) (Rattus norvegicus, UniProt P35439+Q00959); experiment: as above
GluN1–1a D/D = GluN1–1a D/D (Rattus norvegicus, UniProt P35439+Q62645); experiment: as above
Chain of GluN1–1a D/D (Q62645 28-1323, other chains not shown): as the sequence (Q62645 28-1323, other chains not shown) above

GluN1–1b D/D = GluN1–1b D/D (Rattus norvegicus, UniProt P35439+Q62645); experiment: as above
Chain of GluN1–1b D/D (Q62645 28-1323, other chains not shown): as above

GluN1–1a BC1/DC2 = GluN1–1a BC1/DC2 (Rattus norvegicus, UniProt P35439+Q00959+Q00960+Q62645, A876H/F846L/G856D/H848F/K857R/M851T/M860L/Q845K/R869K/V861L/V866F); experiment: as above
GluN1–1a DC1/DC2 = GluN1–1a DC1/DC2 (Rattus norvegicus, UniProt P35439+Q00959+Q62645, R869K/V866F); experiment: as above
GluN1–1b BC1/DC2 = GluN1–1b BC1/DC2 (Rattus norvegicus, UniProt P35439+Q00959+Q00960+Q62645, A876H/F846L/G856D/H848F/K857R/M851T/M860L/Q845K/R869K/V861L/V866F); experiment: as above
GluN1–1b B/B = GluN1–1b B/B (Rattus norvegicus, UniProt P35439+Q00960); experiment: as above
Chain of GluN1–1b B/B (Q00960 27-1482, other chains not shown): as the sequence (Q00960 27-1482, other chains not shown) above

GluN1–1b AC1/BC2 = GluN1–1b AC1/BC2 (Rattus norvegicus, UniProt P35439+Q00959+Q00960, A876H/F846L/G856D/H848F/K857R/M851T/M860L/Q845K/V861L); experiment: as above
GluN1–1a/2B = GluN1–1a/2B (Rattus norvegicus, UniProt P35439+Q00960); experiment: Two-electrode voltage-clamp recordings, Xenopus oocytes; details: agonist concentration-response, isoform 1a
GluN1–1b DC1/DC2 = GluN1–1b DC1/DC2 (Rattus norvegicus, UniProt P35439+Q00959+Q62645, R869K/V866F); experiment: Outside-out patch-clamp recordings, fast application
[3] = molecular target: GluN1–1a AC1/AC2 (GluN1/2AC1/2AC2) (Rattus norvegicus, UniProt P35439+Q00959); experiment: as above
[4] = 1 mM glutamate 3–5 ms, 100 μM glycine
[5] = deactivation, two-exponential fit
[6] = fitted percentage of the fast component
[7] = weighted deactivation time constant
[8] = deactivation, single-exponential fit

## COc1ccc(OCC2c3cc(OC)c(OC)cc3CCN2C(=O)c2cccc(Cl)c2)cc1 (stereo not drawn) [CIQ]
GluN1–1b/2B
  Relative Imax: 91% and 91 ± 3%
GluN1–1b/2D
  Relative Imax: 197% and 197 ± 8%
GluN1–1a/2D; at 10 μM, relative to control, isoform 1a
  Relative Imax: 227% and 227 ± 8%
GluN1–1b/2BC1/2DC2
  Relative Imax: 115% and 115 ± 3%
GluN1–1a/2BC1/2DC2; at 10 μM, relative to control
  Relative Imax: 139% and 139 ± 3%

## N[C@@H](CCC(=O)O)C(=O)O [glutamate]
GluN1–1a AC1/BC2; [4]
  rise time (10–90%): 10.9 ± 6.2 ms
GluN1–1a AC1/BC2; [5]
  τfast: 93 ± 27 ms
  τslow: 180 ± 62 ms
GluN1–1a AC1/BC2; [6]
  % fast: 63 ± 19%
GluN1–1a AC1/BC2; [7]
  τw: 140 ± 10 ^*^,#,$ ms
GluN1–1b BC1/BC2; [4]
  rise time (10–90%): 8.3 ± 1.6 ms
GluN1–1b BC1/BC2; [5]
  τfast: 101 ± 15 ms
  τslow: 360 ± 89 ms
GluN1–1b BC1/BC2; [6]
  % fast: 84 ± 6%
GluN1–1b BC1/BC2; [7]
  τw: 140 ± 10 ms and 138 ± 13 ^*^,$ ms
[1]; [4]
  rise time (10–90%): 4.8 ± 0.3 ms
[1]; [8]
  τfast: 56 ± 6 ms
[1]; [7]
  τw: 56 ± 6^#,$ ms
GluN1–1b AC1/AC2; [4]
  rise time (10–90%): 6.3 ± 2.8 ms
GluN1–1b AC1/AC2; [8]
  τfast: 53 ± 7 ms
GluN1–1b AC1/AC2; [7]
  τw: 53 ± 7^#,$ ms
GluN1–1a B/B; [4]
  rise time (10–90%): 14.9 ± 1.2 ms
GluN1–1a B/B; [5]
  τfast: 240 ± 23 ms
  τslow: 1020 ± 72 ms
GluN1–1a B/B; [6]
  % fast: 59 ± 5%
GluN1–1a B/B; [7]
  τw: 548 ± 45 ^*^,$ ms
GluN1–1a BC1/BC2; [4]
  rise time (10–90%): 15.1 ± 2.7 ms
GluN1–1a BC1/BC2; [5]
  τfast: 205 ± 35 ms
  τslow: 1045 ± 129 ms
GluN1–1a BC1/BC2; [6]
  % fast: 58 ± 8%
GluN1–1a BC1/BC2; [7]
  τw: 530 ± 60 ms and 533 ± 58 ^*^,$ ms
[2]; [4]
  rise time (10–90%): 3.9 ± 0.3 ms
[2]; deactivation, single-exponential fit, 1 mM glutamate 3–5 ms, 100 μM glycine
  τfast: 87 ± 7 ms
[2]; [7]
  τw: 87 ± 7^#,$ ms
GluN1–1a D/D; [4]
  rise time (10–90%): 6.2 ± 0.7 ms
GluN1–1a D/D; [5]
  τfast: 832 ± 146 ms
  τslow: 7436 ± 890 ms
GluN1–1a D/D; [6]
  % fast: 24 ± 3%
GluN1–1a D/D; [7]
  τw: 5714 ± 458 ^*^,# ms
GluN1–1b D/D; [4]
  rise time (10–90%): 3.5 ± 0.4 ms
GluN1–1b D/D; [5]
  τfast: 245 ± 32 ms
  τslow: 1609 ± 148 ms
GluN1–1b D/D; [6]
  % fast: 40 ± 7%
GluN1–1b D/D; [7]
  τw: 992 ± 68 ^*^,# ms
GluN1–1a/2D; GluN1 isoform 1a, glutamate with 100 μM glycine, glycine with 300 μM glutamate
  EC50: 270 ± 10 nM
GluN1–1a/2D; agonist concentration-response, isoform 1a
  nH (Hill coefficient): 1.7
GluN1–1a BC1/DC2; [4]
  rise time (10–90%): 10.9 ± 2.5 ms
GluN1–1a BC1/DC2; [5]
  τfast: 516 ± 42 ms
  τslow: 3521 ± 446 ms
GluN1–1a BC1/DC2; [6]
  % fast: 54 ± 6%
GluN1–1a BC1/DC2; [7]
  τw: 1770 ± 120 ms and 1767 ± 117 ^*^,#,$ ms
GluN1–1a DC1/DC2; [4]
  rise time (10–90%): 8.6 ± 4.8 ms
GluN1–1a DC1/DC2; [5]
  τfast: 527 ± 225 ms
  τslow: 6912 ± 848 ms
GluN1–1a DC1/DC2; [6]
  % fast: 17 ± 7%
GluN1–1a DC1/DC2; [7]
  τw: 5700 ± 560 ms and 5700 ± 561 ^*^,# ms
GluN1–1b BC1/DC2; [4]
  rise time (10–90%): 9.2 ± 1.3 ms
GluN1–1b BC1/DC2; [5]
  τfast: 127 ± 31 ms
  τslow: 634 ± 132 ms
GluN1–1b BC1/DC2; [6]
  % fast: 50 ± 15%
GluN1–1b BC1/DC2; [7]
  τw: 290 ± 120 ms and 288 ± 22 ^*^,#,$ ms
GluN1–1b B/B; [4]
  rise time (10–90%): 10.3 ± 1.5 ms
GluN1–1b B/B; [5]
  τfast: 81 ± 8 ms
  τslow: 208 ± 49 ms
GluN1–1b B/B; [6]
  % fast: 58 ± 12%
GluN1–1b B/B; [7]
  τw: 155 ± 19 ^*^,$ ms
GluN1–1b AC1/BC2; [4]
  rise time (10–90%): 3.7 ± 0.5 ms
GluN1–1b AC1/BC2; [5]
  τfast: 47 ± 4 ms
  τslow: 160 ± 25 ms
GluN1–1b AC1/BC2; [6]
  % fast: 69 ± 12%
GluN1–1b AC1/BC2; [7]
  τw: 74 ± 5 ^*^,#,$ ms
GluN1–1a/2B
  nH (Hill coefficient): 1.6
GluN1–1a/2BC1/2DC2; agonist concentration-response
  nH (Hill coefficient): 1.4
GluN1–1b DC1/DC2; [4]
  rise time (10–90%): 4.5 ± 0.7 ms
GluN1–1b DC1/DC2; [5]
  τfast: 256 ± 92 ms
  τslow: 1399 ± 141 ms
GluN1–1b DC1/DC2; [6]
  % fast: 14 ± 4%
GluN1–1b DC1/DC2; [7]
  τw: 1230 ± 90 ms and 1230 ± 86 ^*^,# ms
[3]; [4]
  rise time (10–90%): 4.2 ± 0.9 ms
[3]; [8]
  τfast: 78 ± 13 ms
[3]; [7]
  τw: 78 ± 13 ^*^,#,$ ms
